Experimental data reported in US6610310B2, “Polyanionic polymers as adjuvants for mucosal immunization” (priority 1996, dated 2003).

Columns and labels:
Parameters in all cases: species or system mice
Conditions in all cases: mouse, in vivo
[1] = tested on: Newcastle Disease Virus (NDV) strain Lasota
[2] = tested on: influenza virus, strain MRC-11
[3] = tested on: influenza virus strain A/Texas

In the case of Cholera toxin subunit B [CTB], the “anti-NDV Ig-producing cells/10^6 cells 3 weeks following immunization, mean; IgA in the spleen” value [1] is reported as 84 cells/10^6 cells, the “anti-NDV Ig-producing cells/10^6 cells 3 weeks following immunization, mean; IgG in the lungs” value [1] is reported as 10 cells/10^6 cells and the “anti-NDV Ig-producing cells/10^6 cells 3 weeks following immunization, mean; IgG in the spleen” value [1] is reported as 8 cells/10^6 cells. The “anti-NDV Ig-producing cells/10^6 cells 6 weeks following immunization, mean; IgA in the lungs” value [1] was 23 cells/10^6 cells, the “anti-NDV Ig-producing cells/10^6 cells 3 weeks following immunization, mean; IgA in the lungs” value [2] was 82 cells/10^6 cells and the “specific Ig-producing cells/10^6 cells 3 weeks following first immunization, mean; IgA in the lungs” value [3] was 961 cells/10^6 cells.
